“And” between values parts separate entries of the source, which are not always exact repeats. Identical values can stand only once.
What was measured:
[1] = test system: α-synuclein toxicity; assay: S. cerevisiae α-synuclein toxicity model, growth assay; type: cell-based; conditions: WT α-synuclein-EGFP strain; 50 μM
Method: To screen small molecule library LOPAC1280 in S. cerevisiae SNCA toxicity model, working plates containing 50 μM drugs in 1.5% DMSO (190 compounds/plate) are prepared in a 384 well format. WT SNCA-GFP with or without small molecules and untreated WT GFP are grown under optimized conditions (80 μl, 30° C. and 420 rpm) for 36 h in a plate reader (Varioskan Flash, Thermo Scientific) in duplicates with automatic absorbance (A600) recording every 20 min. Growth curves of untreated WT GFP and WT SNCA-GFP strains are plotted and mid to late exponential phase time point of untreated WT GFP strain is chosen as reference for data analysis. Its corresponding time point of untreated and drug treated WT SNCA-GFP strains are plotted separately in a box plot. Small molecules that rescued the growth lag by ≥3 SD units of untreated WT SNCA-GFP strain are considered as ‘Hits’.
Growth assays: In a 384 well plate, appropriate yeast strains are seeded (A600˜0.07) with and without drugs and incubated (80 μl, 30° C. and 420 rpm) in a multiplate reader (Varioskan Flash, Thermo Scientific) for 48 h with automatic absorbance (A600) recording every 20 min. Growth curves are plotted and analyzed using GraphPad Prism.
Induction of α-synuclein-EGFP aggregates: To induce α-synuclein-EGFP aggregates, the corresponding strains are inoculated in SD-Ura medium, Secondary culture is inoculated from primary inoculum and incubated till A600 reaches 0.8/ml. Cells are washed twice with sterile water and aggregates are induced by adding SG-Ura for 12-16 h.
To screen small molecule library LOPAC^1280 in S. cerevisiae α-synuclein toxicity model, working plates containing 50 μM drugs (small molecule) in 1.5% DMSO (190 compounds/plate) are prepared in a 384 well format. WT α-synuclein-EGFP with and without small molecules and untreated WT EGFP are grown under optimized conditions (80 μl, 30° C. and 420 rpm) for 36 h in a plate reader (Varioskan Flash, Thermo Scientific) in duplicates with automatic absorbance (A600) recording every 20 min.
Growth curves of untreated WT EGFP and WI α-synuclein-EGFP strains are plotted and mid to late exponential phase time point of untreated WT EGFP strain is chosen as reference for data analysis. Its corresponding time point of untreated and drug treated WT α-synuclein-EGFP strains are plotted separately in a box plot.
Appropriate yeast strains are seeded (A600 ˜0.07) with or without drugs in a 384-well plate and incubated (420 rpm, 30° C. and 80 μl) in a multiplate reader (Varioskan Flash, Thermo Scientific) for 48 h that records absorbance (A600) automatically for every 20 min. Growth curves are plotted using GraphPad Prism.

[2] = test system: TH+ dopaminergic neurons in SNpc; assay: MPTP mouse model: TH+ dopaminergic neurons in SNpc (stereology, densitometry, volume); type: in vivo, mice
Method: As described by Vernice Jackson-Lewis & Serge Przedborski (2007), 23.4 mg/kg MPTP.HCl (equivalent to 20 mg/kg free base) in 10 ml/kg body wt. of saline is administered intraperitoneally (i.p.) for 4 times at 2 h intervals.
All mice are sacrificed 9 days post MPTP administration and brains are processed for immunohistochemistry.
Mice are anaesthetized using Halothane BP (Piramal Healthcare) inhalation and perfused intracardially with normal saline followed by 4% PFA in 0.1 M phosphate buffer, pH 7.4. Brains are removed quickly and post-fixed with 4% PFA for 24 h-48 h at 4° C. Following cryoprotection in 15% and 30% sucrose, 40 μm thick coronal cryosections of midbrain are collected serially on gelatinized slides. Immunoperoxidase labelling protocol as identical to that reported. Briefly, endogenous peroxidase is quenched using H2O2 (0.1%) in methanol (70%), followed by blocking of non-specific staining by buffered solution (3%) of bovine serum albumin for 4 h at room temperature. Sections are incubated with TH primary antibody (1:500) followed by biotin conjugated secondary antibody (1:200 dilution, Vector Laboratories). Tertiary labelling is performed with avidin-biotin complex solution (1:100, Vector Laboratories). Staining is visualized using 3′-3′-diaminobenzidine (0.05%) as a chromogen in a solution of 0.1M acetate imidazole buffer (pH 7.4) and H2O2 (0.1%). Negative controls are processed identically, except that primary antibody is replaced with dilution buffer.
As described by Y. Fu et al., SNpcis delineated using the 4× objective of Olympus BX61 Microscope (Olympus) equipped with Stereo Investigator Software Version 7.2 (MicroBrightField). Stereological quantification is performed using optical fractionator probe with slight modifications(P. A. Alladi et al.). Briefly, every sixth midbrain section containing SNpc is chosen and TH^+ cells are counted under 100× objective, with a regular grid interval of 22500 μm^2 (x=150 μm, y=150 μm) and counting frame with an area of 3600 μm^2 (x=60 μm, y=60 μm) (FIG. 10B). Mounted thickness is determined at every fifth site, averaging to 25 μm. Guard zone 4 μm is applied on either side, thus providing 17 μm of z-dimension within optical dissector. The quantification is performed starting with first anterior appearance of TH^+ neurons in SNpc to caudal most part. The SNpc volume is determined by planimetry (FIG. 10C) and total numbers of neurons according to mean measured thickness are noted.
High magnification images of TH stained nigral DAergic neurons, captured for offline assessment of Tyrosine Hydroxylase (TH) enzyme expression levels=used. Expression intensity is measured using a Windows based image analysis system (Q Win V3, Leica Systems). Cumulative mean is derived from the values obtained from sampling, approximately 200 DAergic neurons per animal. Intensity output is measured on a grey scale of 0-255, where 0 equals intense staining and 255 means absence of staining.
The mice are distributed into three groups' viz., vehicle, MPTP and MPTP+XCT 790 injected respectively. The vehicle group receives intraperitoneal injections of dimethyl sulfoxide (DMSO) injections i.e. the solvent. The MPTP group receives 23.4 mg/kg MPTP.HCl in 10 ml/kg body wt. of saline is administered intraperitoneally for 4 times at 2 h interval. The MPTP+XCT 790 group mice are injected with 5 mg/kg body wt, of XCT 790 dissolved in DMSO, alongside the first MPTP injection. […]

[3] = test system: DAergic neurons in SNpc; assay: MPTP mouse model: LC3 and A11 puncta in DAergic neurons of SNpc; type: in vivo; conditions: MPTP treated cohort
Method: The sequential immunolabeling procedure is used to co-label the TH and LC3 and/or A11. First, the midbrain sections are equilibrated with 0.1 M PBS (pH 7.4) for 10 min and then incubated with buffered bovine serum albumin (3%) for 4 h to block non-specific epitopes. Then, the sections are incubated in rabbit anti-LC3 antibody (1:1000) and/or anti-oligomer antibody (A11, 1:1000) for 72 h at 4° C. After subsequent washes, the sections are incubated in corresponding fluorescent secondary antibody (1:200) at 4° C., overnight.
Co-labeling with TH is performed on the same sections using rabbit anti-TH antibody (1:500), followed by secondary labeling. PBST (0.01 M, pH 7.4) is used as both working and washing buffer. Sections are then mounted using Vectashield hardset mounting medium.

[4] = test system: lace plant (Aponogeton madagascariensis) cells; assay: Lace plant leaf MDC staining of punctate structures; type: cell-based; conditions: 2 hours; 5 μM wortmannin, 50 μM Bay11, 1 μM concanamycin A, rapamycin, 50 μM ZPCK; control 0.99±0.12
Method: Axenic lace plant cultures are grown in magenta boxes and prepared according to Gunawardena et al. Leaves in the window stage are removed from the corm and rinsed thoroughly with distilled water prior to being sectioned into 2 mm^2 pieces. For starvation treatments, window stage leaves are removed from the plant, placed in distilled water and kept in the dark overnight.
Leaf sections are stained with monodansylcadaverine (MDC; 300 μM) (Sigma, D4008) and simultaneously treated with autophagy modulators for 2 hours in the dark. (1 hour vacuum infiltration at 15 psi). Treatment times, along with stain and modulator applications are optimized using concentration gradients followed by microscopy. The optimized concentrations are 5 μM rapamycin (Enzo Life Sciences (BML A275-0005), 5 μM wortmannin (Santa Cruz Biotechnology, sc-3505), 1 μM concanamycin A (Santa Cruz Biotechnology, sc-202111), 50 μM Bay 11 (Sigma, B5556) and 50 μM ZPCK (Sigma, 860794).
Tissue sections are then rinsed and mounted in distilled water prior to being scanned using a Nikon Eclipse Ti confocal microscope (Nikon 40X/1.30, Plan Fluor, 405 nm excitation and 450/30 nm emission). Areoles in the early phases of PCD are scanned to avoid cellular debris. The mean number of puncta are quantified for each treatment group with a minimum of four independent experiments using NIS Elements Advanced Research software. Additionally, starvation treatment leaves are also exposed to 5 μM, wortmannin, 50 μM Bay11 and 50 μM ZPCK treatments and then qualitatively assessed via confocal microscopy.

[5] = test system: Atg8; assay: Atg8 immunolocalization in lace plant; type: cell-based, Aponogeton madagascariensis; conditions: two hours; same modulator concentrations as MDC; control 0.90±0.08
Method: Whole leaves are treated for two hours prior to fixation in 100% Methanol at 37° C. and then hydrophilized to 20% methanol by adding distilled water at 60° C. every two minutes for 32 minutes. Samples are then sectioned and placed on a multiwall slide and allowed to air dry for 10 minutes to facilitate membrane permeabilization. Blocking is done for 30 minutes at 37° C. with 4% low fat milk powder in 1× microtubule stabilization buffer MTSB (Modified 2× MTSB stock solution: 15 g PIPES, 1.9 g EDTA, 1.22 g MgSO4*7H2O and 2.5 g KOH—pH 7.0). Primary antibody incubation for anti-rabbit ATG8 (Agrisera, AS14 2769) is done at a 1:1000 dilution in 1× MTSB for 30 minutes at 37° C. Samples are then washed for 5 minutes, 3 times with 1× MTSB. Secondary antibody incubation with Goat anti-rabbit Dylight 488 (Agrisera AS09 633) at a 1:2000 dilution in 1× MTSB is done for 30 minutes at 37° C. and then samples are rinsed as above. Tissues are mounted in Mowiol 4-88 solution (Sigma, 81381) and scanned via confocal microscopy as mentioned above. The mean number of puncta per cell is determined using maximum intensity projections (MIPs) for each replicate. The total number of cells within a field of view are counted manually and the number of puncta are counted automatically using ImageJ.

SMILES | mean number of punctate structures per cell (MDC) [4] | mean number of Atg8 puncta per cell [5] | also measured
N#C/C(=C\c1ccc(-c2cc(Cl)ccc2Cl)o1)C(=O)Nc1cccc2ncccc12 [Agk2, reference compound] | – | – | rescue of growth lag due to α-synuclein toxicity [1]: rescue growth lag
CN1CC=C(c2ccccc2)CC1 [MPTP, methyl-4-phenyl-1,2,3,6-tetrahydropyridine, reference compound] | – | – | reduction in number and health of DA neurons, compared to control ([2]; MPTP 23 mg/kg): ~3 fold; dopaminergic neurons in SNpc lost, MPTP vs Vehicle ([2]; MPTP 23.4 mg/kg, 4 times): ~68%; increase of A11 puncta / aggregates, placebo/vehicle vs MPTP [3]: ~7 fold and ~6.5 fold
C/C=C/[C@H]1O[C@@](O)([C@@H](C)[C@H](O)[C@H](C)[C@H]2OC(=O)/C(OC)=C/C(C)=C/[C@@H](C)[C@@H](O)[C@@H](CC)[C@@H](O)[C@H](C)C/C(C)=C/C=C/[C@@H]2OC)C[C@@H](O[C@H]2C[C@@H](O)[C@H](OC(N)=O)[C@@H](C)O2)[C@@H]1C [concanamycin A] | 1.91±0.13 | 2.43±0.29 | –
CO[C@H]1C[C@@H]2CC[C@@H](C)[C@@](O)(O2)C(=O)C(=O)N2CCCC[C@H]2C(=O)O[C@H]([C@H](C)C[C@@H]2CC[C@@H](O)[C@H](OC)C2)CC(=O)[C@H](C)/C=C(\C)[C@@H](O)[C@@H](OC)C(=O)[C@H](C)C[C@H](C)/C=C/C=C/C=C/1C [rapamycin] | 2.31±0.25 | 3.52±0.09 | –
COC[C@H]1OC(=O)c2coc3c2[C@@]1(C)C1=C(C3=O)[C@@H]2CCC(=O)[C@@]2(C)C[C@H]1OC(C)=O [wortmannin] | 0.26±0.03 | 0.27±0.025 | –

Reference: US20180369186A1, “METHOD FOR MODULATING AUTOPHAGY AND APPLICATIONS THEREOF” (JAWAHARLAL NEHRU CENTRE FOR ADVANCED SCIENTIFIC RESEARCH, priority 2015, published 2018)
